The structures appear in SMILES notation. Like-named read-outs stand apart in the source and are kept apart here.

The text below walks through data of US10414778B2, “Methods for treatment of resistant cancer” (New Mexico Tech University Research Park Corporation, priority 2016, dated 2019).

Holding throughout (assay type): cell-based, human
Assay [1] concerns HeLa cells. The assay is described as follows: MTT in vitro growth inhibition assay, HeLa. Particulars: two independent experiments. On the procedure: (§1) Human cancer cell lines were obtained from the American Type Culture Collection (ATCC, Manassas, Va., USA), the European Collection of Cell Culture (ECACC, Salisbury, UK), and the Deutsche Sammlung von Mikroorganismen und Zellkulturen (DSMZ, Braunschweig, Germany). Human cervical adenocarcinoma HeLa cells were cultured in DMEM supplemented with 10% fetal bovine serum (FBS). Human mammary carcinoma MCF-7 cells were cultured in RPMI supplemented with 10% FBS. The U87 cells (ATCC HTB-14) were cultured in DMEM culture medium, while the A549 cells (DSMZ ACC107) were cultured in RPMI culture medium supplemented with 10% heat-inactivated FBS. The GBM Hs683 (ATCC HTB-138) and the T98G (ATCC CRL-1690) cell lines were cultivated in DMEM supplemented with 10% FBS. The GBM U251 cells (ECACC code 09063001) were cultured in 10% MEM. The human uterine sarcoma MES-SA and MES-SA/Dx5 cells were cultured in RPMI-1640 medium supplemented with 10% FBS with MES SA/Dx5 maintained in the presence of 500 nM Doxorubicin (Sigma™). The U373 glioblastoma cells (ECACC 08061901) were cultured in RPMI culture medium supplemented with 10% heat-inactivated FBS.
(§2) Spirodienones 4a-m were subjected to in vitro growth inhibition 3-(4,5-dimethylthiazol-2-yl)-2,5-diphenyltetrazolium bromide (MTT) assays against two cell lines, human HeLa cervical and MCF-7 breast adenocarcinomas.
(§3) All compounds were dissolved in DMSO at a concentration of either 100 mM or 50 mM prior to cell treatment. The cells were trypsinized and seeded at various cell concentrations depending on the cell type. The cells were grown for 24 h to 72 h, treated with compounds at concentrations ranging from 0.001 to 100 μM, and incubated for 48, 72, or 96 h in 100 or 200 μL media depending on the cell line used. Cells treated with 0.1% DMSO were used as a negative control, and cells treated with 1 μM phenyl arsine oxide (PAO) were used as a positive control.
(§4) To determine the activities of the compounds of the invention toward cancer cells, cell lines treated with different compounds were subjected to an in vitro MTT growth assay using human cervical cancer (HeLa) and human adenocarcinoma (MCF-7) cell lines. The MTT growth assay is a colorimetric assay that measures the metabolic activity of cells via reduction of 3-(4,5-dimethylthiazol-2-yl)-2,5-diphenyltetrazolium bromide (MTT). The reduction of MTT occurs in metabolically-active cells and is characterized by a purple color, which can be quantified via spectrophotometry. A higher absorbance reading indicates a metabolically-active cell, while a low absorbance reading indicates low metabolic activity due to, for example, inhibition of cellular proliferation or cell death.
(§5) The values in TABLE 4 are the mean and standard deviation calculated from two independent experiments, which were performed in 4 replicates.

Assay [2] relates to MCF-7 cells. The assay is described as follows: MTT in vitro growth inhibition assay, MCF-7. Particulars: two independent experiments. As for the experimental part: as §1, §2, §3, §4, §5
Assay [3] concerns A549 cells. The assay is described as follows: MTT growth inhibition, A549 NSCLC. To be noted: 48 hours, up to 100 μM, FIGS. 4-7. As for the experimental part:
as §1, §3
Drug-resistant cell lines (i.e., glioma: Hs683, U373, U251, U87, T98G; lung cancer: A549, H2073; uterine carcinoma: MES-SA/Dx5) were complemented with drug-sensitive cell lines, H1993 lung cancer and MES-SA uterine cancer, which were used as controls. […] The GI50 values were calculated after 48-96 hours of treatment with the indicated compounds in replicate using the MTT growth assay.
Compounds 5l and 5g were further tested using the A549 lung cancer cell line to determine a dose-response effect on apoptosis-resistant cells. (FIGS. 4-7). […] The MTT assay was performed in four replicates after 48 hours of treatment with the indicated compounds relative to a DMSO control.

In assay [4] the test system is MES-SA/Dx5 cells. The assay is described as follows: MTT growth inhibition, MDR uterine sarcoma MES-SA/Dx5. To be noted: Homo sapiens, MES-SA/Dx5, MTT. On the procedure: as §1, §3
Compound 4l was also evaluated against the MDR uterine sarcoma cell line (MES-SA/Dx5 to evaluate whether the compounds of the invention were substrates for the MDR cancer efflux systems. The MES-SA/Dx5 cell line was established from the parent uterine sarcoma MES-SA, grown in the presence of increasing concentrations of doxorubicin and is known to be resistant to a number of P-gp substrates.
The selection of doxorubicin-resistant cells (MES-SA/Dx5 cell line) was performed by splitting the cells and allowing the cells to adhere overnight. The next day, the cells were initially exposed to a DOX concentration of 100 nM, which represented the GI50 concentration. The cells were maintained at this DOX concentration until their growth rate reached that of the untreated cells. The DOX concentration was then increased in two-fold increments following the same growth criteria at each concentration to a final DOX concentration of 500 nM. Each new DOX concentration required approximately 2 passages to reach the growth rate of the untreated cells.
(§6) Due to their high potencies, compounds 5l and 5g were used to determine the effects of the compounds on drug-resistant tumor cells. Drug-resistant cell lines (i.e., glioma: Hs683, U373, U251, U87, T98G; lung cancer: A549, H2073; uterine carcinoma: MES-SA/Dx5) were complemented with drug-sensitive cell lines, H1993 lung cancer and MES-SA uterine cancer, which were used as controls. Bulbispermine and paclitaxel were also used as controls. The GI50 values were calculated after 48-96 hours of treatment with the indicated compounds in replicate using the MTT growth assay.

Assay [5] has as its system H2073 cells. Put plainly: MTT growth inhibition, H2073 drug-resistant NSCLC. To be noted: Homo sapiens, NCI-H2073, MTT. As for the experimental part:
NSCLC cell lines H1993 and H2073 were obtained from the Hamon Center for Therapeutic Oncology Research at UT Southwestern Medical Center and cultured in RPMI-1640 medium (Mediatech, VA, USA) supplemented with 5% heat-inactivated FBS (Mediatech™), 100 units/mL penicillin and 0.1 mg/mL streptomycin (Sigma™). All cell lines were cultured in T25 flasks, maintained, and grown at 37° C., 95% humidity, 5% CO2.
as §3
Spirodienone 4l was evaluated against patient-derived NSCLC cell line H1993 and its drug-resistant variant, H2073. The patient-derived NSCLC cell line […] was obtained from a regrown tumor at a primary site after a patient relapsed several months later.
as §6
Compound 5l was further tested to determine the effect of compounds of the invention on drug-resistant tumor cells. A patient-derived non-small cell lung cancer (NSCLC) line, H1993, and the drug-resistant variant of H1993, H2073, were used for testing. The H1993 cell line was obtained from a lymph node metastasis isolated from the patient prior to chemotherapy. The H2073 cell line was derived from a regrown tumor at the primary site after the patient had relapsed several months after administration of the chemotherapy regimen.

[6] abbreviates: Homo sapiens, HeLa, 48 h treatment, ± SD, read-out: cell viability GI50, HeLa.
Where [7] appears, read: Homo sapiens, MCF7, MCF-7, 48 h treatment, ± SD, read-out: cell viability GI50, MCF-7.
Where [8] appears, read: Homo sapiens, HeLa, Table 4, 48-hour treatment, mean and standard deviation, read-out: HeLa Cell Viability GI50.
Where [9] appears, read: Homo sapiens, MCF7, Table 4, 48-hour treatment, mean and standard deviation, read-out: MCF-7 Cell Viability GI50.

On to `O=C1C=CC2(C=C1)CCN(C(=O)C(F)(F)F)Cc1c2ccc2c1OCO2` [Compound 4d], for which the GI50 in assay [1] (setting [6]) and in assay [2] (setting [7]) was greater than 100 µM in each case.
In the case of `O=C1C=CC2(C=C1)CCN(C(=O)C(F)(F)F)Cc1cccc(OCc3ccccc3)c12` [Compound 4i], the GI50 in assay [1] (setting [6]) was found to be 11 ± 2 µM; in assay [2] (setting [7]), 14 ± 2 µM.
With `O=C1C=C[C@]23CC[N@](Cc4c2ccc2c4OCO2)[C@H]3C1` [Compound 5d], the GI50 came to 60.5 ± 4.7 µM in assay [1] (setting [8]) and 72.5 ± 2.5 µM in assay [2] (setting [9]).
The corresponding values for `O=C1C=C[C@]23CC[N@](Cc4cscc42)[C@H]3C1` [Compound 5k] are 25.4 ± 5.2 µM and 43.6 ± 2.1 µM.
For the molecule `CC(=O)O[C@H]1C(=O)[C@@]2(C)[C@H]([C@H](OC(=O)c3ccccc3)[C@]3(O)C[C@H](OC(=O)[C@H](O)[C@@H](NC(=O)c4ccccc4)c4ccccc4)C(C)=C1C3(C)C)[C@]1(OC(C)=O)CO[C@@H]1C[C@@H]2O` [paclitaxel, reference compound], the “anti-proliferative activity, dose-response (absorbance at 595 nm)” value in assay [3] is given as “did not display such potent anti-proliferative activity”. For the same molecule, the GI50 in assay [4] (Table 3, 48-96 h treatment, read-out: GI50 in vitro values, uterine sarcoma MES-SA/Dx5) came out at 10 µM; in assay [4] (Table 5, 48-96 hours of treatment, read-out: GI50, Sarcoma MES-SA/Dx5) it was 10 µM; in assay [5] (Table 3, 48-96 h treatment, read-out: GI50 in vitro values, lung cancer H2073) it was 2.4 µM; in assay [5] (Table 5, 48-96 hours of treatment, read-out: GI50, Lung Cancer H2073) it was 2.4 µM.
Take `O=C1C=C[C@]23CC[N@](Cc4cc5c(cc42)OCCO5)[C@H]3C1` [Compound 5c]: the GI50 was found to be 12.7 ± 2.3 µM in assay [1] (setting [8]) and 18.6 ± 0.8 µM in assay [2] (setting [9]).
On to `COc1cc2c(cc1OCc1ccccc1)C1(C=CC(=O)C=C1)CCN(C(=O)C(F)(F)F)C2` [Compound 4f], for which the GI50 in assay [1] (setting [6]) turned out to be 34 ± 4 µM; in assay [2] (setting [7]), 34 ± 2 µM.
Consider `O=C1C=C[C@]23CC[N@](Cc4cc5c(cc42)OCO5)[C@H]3C1` [Compound 5a], for which the GI50 in assay [1] (setting [8]) came to 25.4 ± 3 µM; in assay [2] (setting [9]), 23.9 ± 0.7 µM.
Consider `COc1cc2c(cc1OCc1ccccc1)CN(C(=O)C(F)(F)F)CCC21C=CC(=O)C=C1` [Compound 4e], for which the GI50 in assay [1] (setting [6]) was 38 ± 2 µM; in assay [2] (setting [7]), 48 ± 3 µM.
On to `O=C1C=CC2(C=C1)CCN(C(=O)C(F)(F)F)Cc1cc(OCc3ccccc3)c(OCc3ccccc3)cc12` [Compound 4g], for which the GI50 in assay [1] (setting [6]) was found to be 17 ± 1 µM; in assay [2] (setting [7]), 25 ± 2 µM.
Regarding `COc1cc([C@@H]2c3cc4c(cc3[C@H](O)[C@H]3COC(=O)[C@H]23)OCO4)cc(OC)c1OC` [PODO, podophyllotoxin, reference compound], the “anti-proliferative activity, dose-response (absorbance at 595 nm)” value in assay [3] is reported as “did not display such potent anti-proliferative activity”.
As for `COc1cc2c(cc1OC)[C@@]13C=CC(=O)C[C@@H]1[N@](CC3)C2` [Compound 5b], the results for the GI50 in assay [1] (setting [8]) and in assay [2] (setting [9]) were 63.5 ± 2.7 µM and greater than 100 µM, respectively.
The corresponding values for `COc1cc2c(cc1OCc1ccccc1)C[N@@]1CC[C@@]23C=CC(=O)C[C@H]13` [Compound 5e] are 11.8 ± 0.5 µM and 14.5 ± 1 µM.
Turning to `O=C1C=CC2(C=C1)CCN(C(=O)C(F)(F)F)Cc1cc3c(cc12)OCO3` [Compound 4a], the figures for the GI50 in assay [1] (setting [6]) and in assay [2] (setting [7]) were 24 ± 2 µM and 30 ± 2 µM, respectively.
Consider `O=C1C=CC2(C=C1)CCN(C(=O)C(F)(F)F)Cc1cc3c(cc12)OCCO3` [Compound 4c], for which the GI50 came out at 21 ± 1 µM in assay [1] (setting [6]) and 34 ± 12 µM in assay [2] (setting [7]).
For the molecule `CO[C@@H]1C=C[C@@]23c4cc5c(cc4CN(C[C@@H]2O)[C@H]3C1)OCO5` [Haemanthamine, reference compound], the GI50 in assay [1] (Table 4, 48-hour treatment, mean and standard deviation, read-out: HeLa Cell Viability GI50) was found to be 1.8 ± 0.3 µM; in assay [2] (Table 4, 48-hour treatment, mean and standard deviation, read-out: MCF-7 Cell Viability GI50), 2.1 ± 0.2 µM.
With `O=C1C=CC2(C=C1)CCN(C(=O)C(F)(F)F)Cc1cc(OCc3ccccc3)ccc12` [Compound 4h], the GI50 in assay [1] (setting [6]) came out at 16 µM; in assay [2] (setting [7]), 40 ± 1 µM.
The corresponding values for `COc1cc2c(cc1OC)C1(C=CC(=O)C=C1)CCN(C(=O)C(F)(F)F)C2` [Compound 4b] are 83 ± 5 µM and greater than 100 µM.
As to `O=C1C=C[C@]23CC[N@](Cc4cc(OCc5ccccc5)ccc42)[C@H]3C1` [Compound 5h], the GI50 is 7.9 ± 0.3 µM in assay [1] (setting [8]) and 14.4 ± 1 µM in assay [2] (setting [9]).
The corresponding values for `COc1cc2c(cc1OCc1ccccc1)[C@@]13C=CC(=O)C[C@@H]1[N@](CC3)C2` [Compound 5f] are 16.7 ± 1.8 µM and 16.8 ± 0.2 µM.
The corresponding values for `O=C1C=C[C@]23CC[N@](Cc4cccc(OCc5ccccc5)c42)[C@H]3C1` [Compound 5i] are 7.37 ± 0.9 µM and 11 µM.
